Measured values as given in the NIST ThermoML archive (doi:10.1016/j.jct.2010.11.004).
Numbers after ± are expanded uncertainties.

settings: 298.15 K; 101.33 kPa; Liquid; Vibrating tube method

Compound | mass density
CCCCCCCCC(C)=O [2-decanone] | 820.63 ± 0.24 kg/m3
CCCCCCCCCCCC [dodecane] | 745.28 ± 0.25 kg/m3
CCCCCOCCCCC [dipentyl ether] | 779.1 ± 0.24 kg/m3
CCCCCCCCCCCCCCCC [hexadecane] | 770.31 ± 0.24 kg/m3
CCCCCCCCCCCCCC [tetradecane] | 760.2 ± 0.24 kg/m3
